This is an account of results in US5112806A, “Antibiotic, mersacidin, a process for the preparation thereof and the use thereof as a pharmaceutical” (Hoechst Aktiengesellschaft, priority 1988, dated 1992).

What is called solubility is the dissolved amount per volume that the medium holds. Read a low solubility as a poorly soluble substance.

Data set [1] relates to S. aureus 3066. In words: MIC, growth inhibition in vitro. Format: cell-based. The note with it: Table 5. From the text:
(§1) The biological properties of mersacidin as the MIC values required for inhibition of the growth of various microorganisms are listed in Table 3.

For data set [2], the system named is S. aureus 710. The data set can be described thus: MIC, growth inhibition in vitro. Type of data set: cell-based. The note with it: Table 5.
From the text: as §1

The subject of data set [3] is S. aureus R 85. The data set can be described thus: MIC, growth inhibition in vitro. The note with it: Table 5. Format: cell-based.
From the text: as §1

Data set [4] has as its system Staphylococcus aureus 209P. The data set can be described thus: MIC, growth inhibition in vitro. Type of data set: cell-based. The note with it: Table 5.
From the text: as §1

Data set [5] concerns S. aureus 25923. In words: MIC, growth inhibition in vitro. The conditions noted are these: Table 5. Format: cell-based.
Data set [6] deals with S. epidermidis 32965. The data set can be described thus: MIC, growth inhibition in vitro. Type of data set: cell-based. The note with it: Table 5.
Data set [7] deals with S. epidermidis 823. In words: MIC, growth inhibition in vitro. Format: cell-based. The note with it: Table 5.
Data set [8] relates to S. haemolyticus 712. In words: MIC, growth inhibition in vitro. Format: cell-based. The conditions noted are these: Table 5.
Data set [9] has as its system S. haemolyticus 809. The data set can be described thus: MIC, growth inhibition in vitro. Format: cell-based. The note with it: Table 5.
Data set [10] concerns Streptococcus hominis ML 22. The data set can be described thus: MIC, growth inhibition in vitro. Type of data set: cell-based. The conditions noted are these: Table 5.
Data set [11] has as its system Streptococcus faecalis 29212. In words: MIC, growth inhibition in vitro. The conditions noted are these: Table 5. Format: cell-based.
Data set [12] relates to Streptococcus faecalis 21777. In words: MIC, growth inhibition in vitro. Format: cell-based. The conditions noted are these: Table 5.
Data set [13] concerns S. aureus SG 511. The data set can be described thus: In vivo activity against S. aureus SG 511 infection in mice. The note with it: S. aureus SG 511 (Methicillin sensitive), 1,75 × 10^9 CFU/mouse. The method, then: On subcutaneous administration in a dose of 9.37 and 25.00 mg/kg to laboratory mice infected experimentally with Staphylococcus aureus SG 511 and S. aureus 710 (resistant to methicillin), […].
In vivo activity of mersacidin against S. aureus SG 511
infection in mice compared with vancomycin.
Inoculation medium used: 1.75 × 10^9 CFU/mouse

For data set [14], the system named is S. aureus E 710 (MRSA). In words: In vivo activity against S. aureus E 710 (MRSA) in mice. The note with it: S. aureus E 710 (Methicillin resistant), 1 × 10^10 CFU/mouse. The procedure: On subcutaneous administration in a dose of 9.37 and 25.00 mg/kg to laboratory mice infected experimentally with Staphylococcus aureus SG 511 and S. aureus 710 (resistant to methicillin), […]. […]

Data set [15] relates to S. aureus C 31153. The data set can be described thus: In vivo activity against S. aureus C 31153 infection in mice. The conditions noted are these: S. aureus C 31153 (Methicillin & Caphalexin resistant), 2 × 10^9 CFU/mouse. The text has this: (§2) In vivo activity of potassium mersacidin against S. aureus
(§3) and Streptococcus pyogenes A 77 infection in mice

Data set [16] relates to Streptococcus pyogenes A 77. The data set can be described thus: In vivo activity against Streptococcus pyogenes A 77 infection in mice. The conditions noted are these: Streptococcus pyogenes A 77, 3,8 × 10^3 CFU/mouse.
From the text: as §2, §3

Data set [17] in a line: physchem. The conditions noted are these: water. The procedure: These salts can be prepared by the treatment of mersacidin with 1.0 equivalent of the corresponding alkali metal hydroxide in the presence of pyridine. For example, mersacidin (50 mg) was dissolved in 1 ml of pyridine, the solution cooled to 0° C. and a solution of 1.683 mg of KOH in 3 ml of distilled water was added under stirring.

Turning to `C=C1NC(=O)[C@@H]2NC(=O)[C@H](CC(C)C)NC(=O)[C@H](NC(=O)[C@@H]3CS[C@@H](C)[C@@H](NC(=O)[C@H](Cc4ccccc4)NC(=O)[C@@H]4NC(=O)[C@@H](N)CS[C@H]4C)C(=O)N[C@@H](CC(C)C)C(=O)N4CCC[C@H]4C(=O)NCC(=O)NCC(=O)NCC(=O)NCC(=O)N[C@@H](C(C)C)C(=O)N3)[C@H](C)SC[C@H](NC(=O)[C@H](CCC(=O)O)NC1=O)C(=O)N[C@@H]([C@@H](C)CC)C(=O)N/C=C\S[C@H]2C` [potassium mersacidin], the MIC values worked out at 10 µg/mL in data set [1]; 1 µg/mL in data set [2]; 2 µg/mL in [3]; 2 µg/mL in data set [4]; 8 µg/mL in data set [5]; 6 µg/mL in [6]. Moreover, the MIC values in [7] turned out to be 50 µg/mL; in data set [8], 10 µg/mL; in data set [9], 4 µg/mL; in data set [10] it was 10 µg/mL; in data set [11], 15 µg/mL; in data set [12], 15 µg/mL. The “50% Effective Dose (ED50)” value is recorded as 2,85 mg/kg × 3, s.c in [13]; 6,72 mg/kg × 3, s.c in data set [14]; 15,35 mg/kg × 3, s.c in data set [15]; 0,46 mg/kg × 3, s.c in [16]. The molecule also came in with a solubility in data set [17] of at least 160 mg/mL.
